PubChem BioAssay AID2060500 (Molecular Pharmacology Branch, DTP, NCI, 2025)

Test system: 596521-263-R-J1-PDC complex spheroids, viability % of control
Experiment: Anticancer human tumor 596521-263-R-J1-PDC patient-derived soft tissue sarcoma cell line growth inhibition [GQUAD]
Conditions: for IC50: curve of first compound; for viability, T/C: stronger effect = lower value
In short: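 Viability of tumor cells grown as complex spheroids with endothelial and stromal cells, exposed to drug combinations. Top concentration at or near clinical Cmax (else 10 microM), diluted in half-log increments.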

[1] = second compound 0.0316 µM, first compound 0.000999 µM
[2] = second compound 0.0316 µM, first compound 0.00316 µM
[3] = second compound 0.0316 µM, first compound 0.00999 µM
[4] = second compound 0.0316 µM, first compound 0.0316 µM
[5] = second compound 0.0316 µM, first compound 0.0999 µM
[6] = second compound 0.0316 µM, first compound 0.316 µM
[7] = second compound 0.1 µM, first compound 0.000999 µM
[8] = second compound 0.1 µM, first compound 0.00316 µM
[9] = second compound 0.1 µM, first compound 0.00999 µM
[10] = second compound 0.1 µM, first compound 0.0316 µM
[11] = second compound 0.1 µM, first compound 0.0999 µM
[12] = second compound 0.1 µM, first compound 0.316 µM
[13] = second compound 0.316 µM, first compound 0.000999 µM
[14] = second compound 0.316 µM, first compound 0.00316 µM
[15] = second compound 0.316 µM, first compound 0.00999 µM
[16] = second compound 0.316 µM, first compound 0.0316 µM
[17] = second compound 0.316 µM, first compound 0.0999 µM
[18] = second compound 0.316 µM, first compound 0.316 µM
[19] = second compound 1 µM, first compound 0.000999 µM
[20] = second compound 1 µM, first compound 0.00316 µM
[21] = second compound 1 µM, first compound 0.00999 µM
[22] = second compound 1 µM, first compound 0.0316 µM
[23] = second compound 1 µM, first compound 0.0999 µM
[24] = second compound 1 µM, first compound 0.316 µM
[25] = second compound 3.16 µM, first compound 0.000999 µM
[26] = second compound 3.16 µM, first compound 0.00316 µM
[27] = second compound 3.16 µM, first compound 0.00999 µM
[28] = second compound 3.16 µM, first compound 0.0316 µM
[29] = second compound 3.16 µM, first compound 0.0999 µM
[30] = second compound 3.16 µM, first compound 0.316 µM
[31] = second compound 10 µM, first compound 0.000999 µM
[32] = second compound 10 µM, first compound 0.00316 µM
[33] = second compound 10 µM, first compound 0.00999 µM
[34] = second compound 10 µM, first compound 0.0316 µM
[35] = second compound 10 µM, first compound 0.0999 µM
[36] = second compound 10 µM, first compound 0.316 µM
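Also: spheroids exposed to drugs for 7 days before viability reading.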
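For viability, T/C in this document: 100% = DMSO vehicle control viability.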

In the case of `CC[C@@]1(O)C(=O)OCc2c1cc1n(c2=O)Cc2cc3c(CN(C)C)c(O)ccc3nc2-1` + Cc1cnc(CNC(=O)c2c(=O)c3ccc(N4CCCN(C)CC4)nc3n3c2sc2ccccc23)cn1, the IC50 (second compound 0.0316 µM) is reported as > 316 nM, the IC50 (second compound 0.1 µM) is reported as > 316 nM and the IC50 (second compound 0.316 µM) is reported as > 316 nM. The IC50 (second compound 1 µM) was > 316 nM, the IC50 (second compound 3.16 µM) was > 316 nM and the IC50 (second compound 10 µM) was < 0.999 nM. The viability, T/C [1] was 107%, the viability, T/C [2] was 102% and the viability, T/C [3] was 78.7%. The viability, T/C [4] was 66.5%, the viability, T/C [5] was 60.1% and the viability, T/C [6] was 60.1%. The viability, T/C [7] was 88.9%, the viability, T/C [8] was 85% and the viability, T/C [9] was 76.5%. The viability, T/C [10] was 69.3%, the viability, T/C [11] was 57.2% and the viability, T/C [12] was 50.9%. The viability, T/C [13] was 90.1%, the viability, T/C [14] was 86.7% and the viability, T/C [15] was 78.3%. It also gave a viability, T/C [16] of 63%, a viability, T/C [17] of 67.1% and a viability, T/C [18] of 65.7%. It also gave a viability, T/C [19] of 70.8%, a viability, T/C [20] of 60.2% and a viability, T/C [21] of 60.4%. The viability, T/C [22] was 63.2%, the viability, T/C [23] was 59.3% and the viability, T/C [24] was 55.8%. It also gave a viability, T/C [25] of 54.3%, a viability, T/C [26] of 60.7% and a viability, T/C [27] of 51.5%. The viability, T/C [28] was 54.4%, the viability, T/C [29] was 58% and the viability, T/C [30] was 56.2%. The viability, T/C [31] was 46.5%, the viability, T/C [32] was 47.1% and the viability, T/C [33] was 49.7%. It also gave a viability, T/C [34] of 43.7%, a viability, T/C [35] of 49.4% and a viability, T/C [36] of 49%.
`CCc1c2c(nc3ccc(O)cc13)-c1cc3c(c(=O)n1C2)COC(=O)[C@]3(O)CC` + Cc1cnc(CNC(=O)c2c(=O)c3ccc(N4CCCN(C)CC4)nc3n3c2sc2ccccc23)cn1 showed an IC50 (second compound 0.0316 µM) of 8.62 nM, an IC50 (second compound 0.1 µM) of 8.15 nM and an IC50 (second compound 0.316 µM) of 9.24 nM. For the same compound, the IC50 (second compound 1 µM) was 13.2 nM, the IC50 (second compound 3.16 µM) was 6.43 nM and the IC50 (second compound 10 µM) was < 0.999 nM. For the same compound, the viability, T/C [1] was 57.6%, the viability, T/C [2] was 59.2% and the viability, T/C [3] was 44.3%. For the same compound, the viability, T/C [4] was 40%, the viability, T/C [5] was 17.4% and the viability, T/C [6] was 7.92%. It also gave a viability, T/C [7] of 58.6%, a viability, T/C [8] of 56.8% and a viability, T/C [9] of 49.3%. The viability, T/C [10] was 34.1%, the viability, T/C [11] was 21.3% and the viability, T/C [12] was 8.98%. The viability, T/C [13] was 71.6%, the viability, T/C [14] was 55.4% and the viability, T/C [15] was 49.9%. For the same compound, the viability, T/C [16] was 40.5%, the viability, T/C [17] was 21.2% and the viability, T/C [18] was 7.27%. The viability, T/C [19] was 63.8%, the viability, T/C [20] was 61.7% and the viability, T/C [21] was 52.6%. For the same compound, the viability, T/C [22] was 40.1%, the viability, T/C [23] was 24.1% and the viability, T/C [24] was 6.45%. For the same compound, the viability, T/C [25] was 55.8%, the viability, T/C [26] was 55% and the viability, T/C [27] was 47.6%. It also gave a viability, T/C [28] of 37.3%, a viability, T/C [29] of 23.2% and a viability, T/C [30] of 0.26%. It also gave a viability, T/C [31] of 47.2%, a viability, T/C [32] of 37.1% and a viability, T/C [33] of 39.6%. It also gave a viability, T/C [34] of 32.5%, a viability, T/C [35] of 4.57% and a viability, T/C [36] of 0.24%.
In the case of `COc1cc(C2c3cc4c(cc3C(OC3OC5COC(C)OC5C(O)C3O)C3COC(=O)C23)OCO4)cc(OC)c1O` (stereo unspecified) + Cc1cnc(CNC(=O)c2c(=O)c3ccc(N4CCCN(C)CC4)nc3n3c2sc2ccccc23)cn1, the IC50 (second compound 0.0316 µM) is reported as 2670 nM, the IC50 (second compound 0.1 µM) is reported as > 10000 nM and the IC50 (second compound 0.316 µM) is reported as 2800 nM. For the same compound, the IC50 (second compound 1 µM) was 1650 nM, the IC50 (second compound 3.16 µM) was 1770 nM and the IC50 (second compound 10 µM) was < 31.6 nM. The viability, T/C [4] was 99.8%, the viability, T/C (second compound 0.0316 µM, first compound 0.1 µM) was 83.6% and the viability, T/C [6] was 77.8%. For the same compound, the viability, T/C (second compound 0.0316 µM, first compound 1 µM) was 53.8%, the viability, T/C (second compound 0.0316 µM, first compound 3.16 µM) was 50.7% and the viability, T/C (second compound 0.0316 µM, first compound 10 µM) was 42.4%. It also gave a viability, T/C [10] of 91.8%, a viability, T/C (second compound 0.1 µM, first compound 0.1 µM) of 92% and a viability, T/C [12] of 75.8%. It also gave a viability, T/C (second compound 0.1 µM, first compound 1 µM) of 52%, a viability, T/C (second compound 0.1 µM, first compound 3.16 µM) of 56.6% and a viability, T/C (second compound 0.1 µM, first compound 10 µM) of 45.5%. It also gave a viability, T/C [16] of 76.6%, a viability, T/C (second compound 0.316 µM, first compound 0.1 µM) of 73.3% and a viability, T/C [18] of 81.6%. It also gave a viability, T/C (second compound 0.316 µM, first compound 1 µM) of 58%, a viability, T/C (second compound 0.316 µM, first compound 3.16 µM) of 50.3% and a viability, T/C (second compound 0.316 µM, first compound 10 µM) of 47.8%. The viability, T/C [22] was 65.9%, the viability, T/C (second compound 1 µM, first compound 0.1 µM) was 57.5% and the viability, T/C [24] was 55.5%. It also gave a viability, T/C (second compound 1 µM, first compound 1 µM) of 52.2%, a viability, T/C (second compound 1 µM, first compound 3.16 µM) of 51.1% and a viability, T/C (second compound 1 µM, first compound 10 µM) of 38.1%. For the same compound, the viability, T/C [28] was 56.3%, the viability, T/C (second compound 3.16 µM, first compound 0.1 µM) was 52.1% and the viability, T/C [30] was 55%. For the same compound, the viability, T/C (second compound 3.16 µM, first compound 1 µM) was 46.6%, the viability, T/C (second compound 3.16 µM, first compound 3.16 µM) was 50.4% and the viability, T/C (second compound 3.16 µM, first compound 10 µM) was 33.1%. For the same compound, the viability, T/C [34] was 48.8%, the viability, T/C (second compound 10 µM, first compound 0.1 µM) was 37.6% and the viability, T/C [36] was 47.1%. For the same compound, the viability, T/C (second compound 10 µM, first compound 1 µM) was 40.7%, the viability, T/C (second compound 10 µM, first compound 3.16 µM) was 43.5% and the viability, T/C (second compound 10 µM, first compound 10 µM) was 19.4%.
